Assay [1] has as its system 6 Hz (32 mA) corneal stimulation seizures in CF-1 mice. As to the kind of experiment: 6 Hz partial psychomotor seizure model. It is filed as in vivo. Conditions: mouse 6 Hz, 30 min after dosing.
The subject of assay [2] is Frings mouse model of epilepsy. As to conditions: in vivo; cited from earlier work.

Consider `CC[C@H](C)[C@H](NC(=O)[C@H](Cc1ccc(O)cc1)NC(=O)[C@@H]1CCCN1C(=O)[C@H](CCCNC(=N)N)NC(=O)[C@@H](N)CCCNC(=N)N)C(=O)N[C@@H](CC(C)C)C(=O)O` [NT(8–13), H-RRPYIL-OH], for which the “Anticonvulsant Assay, icv ED50” value in assay [1] is reported as 0.0011 nmol.
On to ZSEEGGSNATKKPYIL [Contulakin-G], for which the “Anticonvulsant activity in the Frings mouse model” value in assay [2] is “potent anticonvulsant activity”.

(Values after PMC4332545 (ChemMedChem, 2009).)
